# Test results taken from patent US9607202B2, “Methods of generating trophectoderm and neurectoderm from human embryonic stem cells” (UNIVERSITY OF PITTSBURGH—OF THE COMMONWEALTH SYSTEM OF …, priority 2009, dated 2017).
# B1: noggin: BMP4 antagonist protein; mouse recombinant noggin (protein, UniProt P97466 28-232, looked up)
# Noggin: QHYLHIRPAPSDNLPLVDLIEHPDPIFDPKEKDLNETLLRSLLGGHYDPGFMATSPPEDRPGGGGGPAGGAEDLAELDQLLRQRPSGAMPSEIKGLEFSEGLAQGKKQRLSKKLRRKLQMWLWSQTFCPVLYAWNDLGSRFWPRYVKVGSCFSKRSCSVPEGMVCKPSKSVHLTVLRWRCQRRGGQRCGWIPIQYPIISECKCSC
# Experiments:
# [1] = test system: pluripotent hESCs, line H7; test: TE-induction and lineage selectivity of hESCs by transcription factor immunostaining (CDX2, brachyury, GATA6, OCT4); type: cell-based, human
# Experimental: Pluripotent hESCs, line H7, were grown on mitomycin-treated MEFs (GlobalStem) at normal-density (120,000 cells/6 cm^2), maintained in DSR media (Table 1), and passaged weekly using Collagenase IV (Invitrogen/Gibco) and StemPro®EZPassage™ (Invitrogen) as directed. Cell colonies were briefly spun, resuspended in DSR, and plated onto normal density MEFs in CM (Table1). For TE-directed differentiation, hESCs were passaged at 1:5 dilution onto low-density MEFs (30,000 cells/6 cm^2) using DSR media minus FGF2 supplemented with BMP4 (Invitrogen, PHC7914) 100 ng/mL. Media was changed daily.
# Feeder-free hESCs were grown on Geltrex (Invitrogen)-coated plates in StemPro (Invitrogen), passaged weekly with Collagenase IV or Accutase (StemCell Technologies) as directed, resuspended in StemPro and plated onto Geltrex-coated plates. For TE-directed differentiation pluripotent hESCs maintained in StemPro or in Erb's Minimal Induction Media (EMIM) were passaged onto feeder-free, Geltrex-coated plates into respective basal media supplemented with the activin A antagonist, SB431542 (10 uM), and/or BMP4 (100 ng/mL or 500 ng/mL) as indicated. Media was changed daily. Terminal STB differentiation was accomplished by culturing hESCs in EMIM+SB+100 ng/mL BMP4 for 14 days.
# In PBS, cell colonies were fixed with 2% paraformaldehyde, permeabilized with 1% Triton X-100 (Sigma, St. Louis Mo.), and non-specific antibody binding blocked with 10% goat serum. Primary antibodies (Table 2) were diluted in 1% goat serum, spun briefly, and incubated overnight at 37° C. After a wash in PBS-Tween 0.05% a species-specific fluorescent secondary antibody (prepared as above) was added for 60 min at 37° C. Cells were washed in PBS-Tween 0.05%, incubated in Hoechst […] (1:10,000), and mounted in Gelvatol polyvinyl alcohol-based media (Sammak et al., 1987).
# Nuclear labeling (Hoechst 33342) facilitates automated image segmentation for counting cell number. Since pluripotent hESCs can differentiate along multiple lineages, TE-differentiation was determined by immunostaining for transcription factors localized to the cell's nucleus or cytoplasm (Table 2). Four color microscopy permits co-labeling of cells with markers of pluripotent hESCs (OCT4), TE cells (CDX2), and alternative markers for early differentiation including neurectoderm (nestin), mesoderm (brachyury), or extraembryonic endoderm
# (GATA6). TE-induction was determined by two criteria: 1) the percentage of all cells that were CDX2-positive and the fold change of CDX2-nuclear intensity over control, unstimulated cells. […] TE selectivity was determined by a significant percentage of CDX2-positive cells and a suppression of the percentage of nestin-, brachyury-, and GATA6-positive cells.
# 96-well Microplates were scanned using the 5 or 10× objective on the ArrayScan V Automated image analysis was performed using the Compartmental Analysis BioApplication using Hoechst for identification of nuclei and various transcription factor antibodies (Table 2). Nuclear-specific fluorescence intensity was determined from approximately 300 single cells per well from 3-6 independent wells to produce a well-average nuclear intensity for each measurement Mean and standard deviation were calculated from multiple wells. Fold change of the mean intensities were normalized against matched unstimulated external controls, usually the pluripotent condition, to divide out differences due to efficiency of antibody-antigen binding and chromophore quantum yield. […] Select conditions are additionally compared in bar graph format to show standard deviations and T-tests.
# hESCs [2] = test: hESC viability and OCT4 expression in minimal induction media; type: cell-based, human
# Description: Thus, to maintain compatibility with StemPro-cultured hESC, a DMEM/F12-based minimal induction media (MIM, Table 1) was developed by testing short-term hESC viability (FIG. 7) and OCT4 expression (FIG. 2) after systematically reintroducing cell survival, but not pluripotency, components.
# One criterion for derivation of a minimal induction media was that hESCs would be viable and continue to express the OCT4 pluripotency marker. […] A second criterion for the derivation of a minimal induction media was that hESC would remain competent to differentiate.
# rNSCs = test: Neuronal differentiation of rNSCs cultured on different surfaces; type: cell-based, rat
# Experimental: All coverslips (Fisher scientific, Pittsburgh, Pa.) were adhered onto the bottom of 24-well plate with Kwik Sil (World Precision Instruments, Inc., Sarasota, Fla.). Before cell seeding, the surface of coverslips were sterilized under UV for 30 min, and then immersed into PBS for 30 min. Laminin (BD Biosciences, San Jose, Calif.) coated glass coverslips were also prepared as control substrates for cell culture. […]
# (§1) Neuronal differentiation was detected by anti-βIII tubulin for hESCs, anti-NF200 for rNSCs. […]
# For rNSCs, neuronal cells (NF200 positive) were counted on the whole coverslips and averaged values across all coverslips were presented as mean±SD. Total cell number was calculated from the number of nuclei. Cell nuclei were counted on ten randomly selected images, averaged, divided by image area and then multiplied by the area of coverslip. […] Cell density was calculated by dividing values of cell number by the image area. Neurite length was measured using Image J and plug-in Neuron J. Length of the primary neurite and all neurites of each cell in each group was measured by tracing the neurites of NF200 positive cells with the tracing algorithm contained in Neuron J. Primary neurite was defined as the longest process out of cell body. […]
# hESCs (line UCO6 (HSF6)) = test: Neuronal differentiation of hESCs on different surfaces; type: cell-based, human
# Experimental: All coverslips (Fisher scientific, Pittsburgh, Pa.) were adhered onto the bottom of 24-well plate with Kwik Sil (World Precision Instruments, Inc., Sarasota, Fla.). Before cell seeding, the surface of coverslips were sterilized under UV for 30 min, and then immersed into PBS for 30 min. Laminin (BD Biosciences, San Jose, Calif.) coated glass coverslips were also prepared as control substrates for cell culture.
# hESCs, line HSF6 obtained from the University of California-San Francisco and WiCell, respectively were approved by the University of Pittsburgh ESCRO committee with IRB exempt approval. hESCs were maintained in ES-DMEM high glucose with 20% KSR, 1% MEM NEAA (WiCell Research Institute, Madison, Wis.), Pen/Strep (10,000 U/10,000 ug), 1% L-Glutamine (2 mM), and 8 ng/mL bFGF (Invitrogen, Carlsbad, Calif.), and passaged in 50-100 cell clusters as recommended. hESCs were grown on mitomycin-treated MEFs prepared from 14-day CF-1 embryos. Media was changed every other day and colonies were mechanically passaged every […] with a Pasteur pipette. […]
# as §1
# hESC = test: Neurectoderm differentiation from hESCs in noggin media; type: cell-based, human; settings: small colonies from StemPro
# Experimental: There are several laboratories that have applied the BMP4 antagonist noggin for differentiation of hESC to neurectoderm or neural stem cells (Ying, Stavridis et al. 2003; Gerrard, Rodgers et al. 2005; Yao, Chen et al. 2006; Cohen, Itsykson et al. 2007). Here, small colonies grown in StemPro are used as the starting material. Cells were plated in StemPro media or neural differentiation media (DMEM/F12 media supplemented with N2/B27). After each day of growth, colonies with the smallest colonies were changed into Noggin media. When colonies grown in noggin had differentiated along a neurectoderm lineage, the cells were fixed for immunostaining. If the colonies had not differentiated, the media was changed and the cells remained in Noggin media for another day. The process was repeated each day for 6-7 days. Cells were immunostained with the following antibodies: Pax6 mouse (Santa Cruz), Otx2 rabbit (Abeam), Nestin mouse (Covance), Alexa 488 goat anti mouse green, Cy3 goat anti rabbit red, Cy5 goat anti mouse far red.
# hESCs [3] = test: Terminal differentiation to syncytia (percentage of bi- or multi-nucleated cells); type: cell-based, human; settings: neurectoderm culture conditions induced by noggin
# [4] = short-term treatment in StemPro (SB or low-dose BMP4 alone)
molecule,measurement,setting,value
"NC(=O)c1ccc(-c2nc(-c3ccc4c(c3)OCO4)c(-c3ccccn3)[nH]2)cc1 [SB, SB431542]",brachyury expression,[1]; [4],significant increase in brachyury expression
OCCS [β-mercaptoethanol],hESC survival,hESCs [2]; addition to minimal induction media with or without heparin,reduced hESC survival
"BMP4: bone morphogenic protein (BMP4), TGFβ superfamily member",fraction of cell population induced to non-TE lineages,[1]; 100 ng/mL BMP4 in MIM,over half of the cell population
same,TE-induction efficiency as frequency of CDX2 staining,"[1]; BMP4, monolayer colonies, DSR/MEF culture (low density MEFs minus FGF2), 7 days",3.6%
same,TE-induction efficiency as frequency of CDX2 staining,"[1]; BMP4, multilayer colonies, DSR/MEF culture, 7 days",44.4%
same,increase in percent brachyury (T) positive cells,[1]; BMP4 added to StemPro for 48 hours,6 fold
same,CDX2 induction,"[1]; BMP4 alone 500 ng/mL in EMIM, day 2",Significant CDX2 induction
same,extraembryonic endoderm (GATA6) positive cells,[1]; BMP4 in MIM,~20%
same,mesoderm (brachyury) positive cells,[1]; BMP4 in MIM,over 40%
same,OCT4 expression,[1]; BMP4 supplementation on low density MEFs,decreased OCT4 expression
same,CDX2 expression,"[1]; BMP4 supplementation to EMIM, culture day 7",induced diffuse CDX2 expression
same,GATA6 over MIM alone,[1]; BMP4 supplementation to MIM,did not increase
same,brachyury over MIM alone,[1]; BMP4 supplementation to MIM,did not increase
same,fold induction of CDX2 over MIM alone,[1]; BMP4 supplementation to MIM,significantly increased
same,TE-induction efficiency as frequency of CDX2 staining,"[1]; StemPro containing BMP4, MEF-free, 4 days",93.7%
same,brachyury expression,[1]; addition of BMP4 to StemPro,"dose-dependent, statistically significant increase"
same,brachyury expression,[1]; [4],significant increase in brachyury expression
heparin,hESC viability,hESCs [2]; basal media once BMP4 was supplemented,improve hESC viability
laminin,percentage of neurons (NF200 positive cells),rNSCs; 7 d,higher percentage of neurons
same,percentage of neurons (NF200 positive cells),rNSCs; 14 d,higher percentage of neurons
same,number of cells per colony,hESCs (line UCO6 (HSF6)); end of the second week (14 days),indistinguishable
same,adhesion and spreading of hESC embryoid bodies/colonies,"hESCs (line UCO6 (HSF6)); feeder-free, within the first week",adhered
B1,efficiency of producing Nestin-positive cells,hESC,~100%
same,time to produce Nestin-positive cells,hESC,3 to 7 days
same,multinucleated cells,hESCs [3],absent
